Measured values taken from patent US6355633B1, “Aryl sulfonic acids and derivatives as FSH antagonists” (American Home Products Corporation, priority 1999, dated 2002).

target: T1, FSH receptor (Homo sapiens, UniProt P23945); assay: FSH Receptor Radioligand Membrane Binding Standard Pharmacological Test Procedure; parameters: expressed in transfected cells; settings: [125I]FSH binding to membranes of CHO cells stably transfected with the human FSH receptor
T1 sequence (P23945 18-695): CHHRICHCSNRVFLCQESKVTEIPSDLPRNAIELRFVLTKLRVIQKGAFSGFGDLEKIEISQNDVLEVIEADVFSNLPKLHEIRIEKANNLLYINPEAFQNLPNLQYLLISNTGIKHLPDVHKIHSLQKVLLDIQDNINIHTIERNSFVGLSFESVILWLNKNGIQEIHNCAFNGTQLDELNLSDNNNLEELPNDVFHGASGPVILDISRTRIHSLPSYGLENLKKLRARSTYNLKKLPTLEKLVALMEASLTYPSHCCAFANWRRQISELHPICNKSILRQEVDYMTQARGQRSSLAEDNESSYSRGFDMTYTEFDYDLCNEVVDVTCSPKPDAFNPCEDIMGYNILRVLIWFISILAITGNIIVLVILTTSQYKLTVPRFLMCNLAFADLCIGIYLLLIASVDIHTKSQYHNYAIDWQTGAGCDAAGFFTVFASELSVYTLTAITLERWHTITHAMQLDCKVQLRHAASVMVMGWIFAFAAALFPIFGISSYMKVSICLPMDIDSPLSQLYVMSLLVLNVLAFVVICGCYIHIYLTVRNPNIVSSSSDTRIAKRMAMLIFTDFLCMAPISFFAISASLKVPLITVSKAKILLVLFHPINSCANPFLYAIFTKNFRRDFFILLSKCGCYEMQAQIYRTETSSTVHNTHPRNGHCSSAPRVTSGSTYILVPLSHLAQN
Procedure: FSH Receptor Radioligand Membrane Binding Standard Pharmacological Test Procedure
Membrane Source: Chinese hamster ovarian cells stably transfected with the human FSH receptor were cultured (Ultra CHO medium containing 1% fetal bovine serum and 200 μg/mL G418) in and harvested. Cells were collected by centrifugation and resulting cell pellets were frozen and stored at −70° C.
Membrane Receptor Preparation: Frozen cell pellets were weighed and resuspended in binding buffer to a final concentration of 30 mg wet weight/mL. Cell suspension for each pellet was homogenized using a Tempest homogenizer (setting=1; 5 strokes; VirTis, Gardiner, N.Y.). Cell homogenates were pooled and 35 mL aliquots were transferred to 50-mL polypropylene copolymer centrifuge tubes (Nalgene cat. #3110-0500). Tubes were spun at 12,000 rpm (SS34 rotor) for 12 min at 4° C. Resulting supernatant fractions were discarded and pellets were stored at −70° C. until use. On the day of the procedure, 35 mL binding buffer was added to each tube (35 mL membrane suspension was sufficient for three 96-well plates). The membrane pellet was dispersed by trituration using a pipet. The resulting suspension wass homogenized using a Tempest homogenizer (3 strokes at setting=1).
Receptor Binding Test procedure: Membrane homogenate (100 μl) was added to each well of a 96-well microtiter plate (Falcon # 3077). All reactions were tested in triplicate. Test compound solutions (50 μl) were added to the designated wells. Total bound counts were determined by adding 50 μl binding buffer containing 4% DMSO to the designated wells. […] Plates were pre-incubated for 15 min at room temperature on shaking platform (setting=3). After preincubation [^125I]FSH (50 μl) was added to each well and plates were incubated for 2 h at room temperature on shaking platform (setting=3). The reaction was terminated by transfer of the membrane preparation to glass fiber filters (Blue Mat #11740; 102×256 mm; Skatron Instruments, Sterling, Va.) that had been pretreated with 1% BSA in wash buffer for at least 30 min, but not longer than 1 h using a 96-well microtiter vacuum harvester (Skatron Instruments). The membrane preparation was washed with 5 cycles of ice-cold wash buffer (200 μl/well/cycle) followed by a pulse wash of 3 cycles (100 μl/well/cycle). The total wash volume per well was 1.3 mL. The filters were dried by a 10 sec aspiration. Disks corresponding to each well of the microtiter plate were punched out of the filter mat into 12×75 mm polypropylene tubes. The radioactivity present on each of the disks was measured using a gamma counter.
An FSH dose response curve (0.001, 0.01, 0.1, 1, 10, and 100 nM) was generated for each binding procedure to monitor procedure to procedrue variability.
FSH Receptor Radioligand Membrane Binding Procedure Buffers and Reagents
Binding buffer is prepared in 11 volumes containing Trizma-HCl, MgCl2, CaCl2 and sodium azide, the pH was adjusted to 7.2 with NaOH, and stored at 4° C. until use. BSA was weighed out on the day of the procedure and added to the amount of buffer required for the procedure (usually 150 mL). The protease inhibitors were prepared as 1 mg/mL stocks (aprotinin, leupeptin, and phosphoramidon were prepared in binding buffer without BSA and protease inhibitors; pepstatin and PMSF were prepared in methanol), stored in 1 mL aliquots at −70° C., and added to the binding buffer on the day of the procedure.
Wash buffer was prepared containing Trizma-HCl, MgCl2 and EDTA, the pH was adjusted to 7.2 with NaOH, and stored at 4° C.
Filter Soak Buffer (pH 7.2)
BSA was weighed out on the day of the procedure and added to 300 mL of wash buffer. The filter soak buffer was used for two procedures before being discarded.
A portion of the stock solution was diluted in binding buffer to a concentration of 200 pM.
FSH Solution for Determining Non-specific Binding: Purified human FSH was prepared as a 100 μM solution in binding buffer without protease inhibitors. […]

Row | Compound | IC50 [µM]
1 | COc1ccc(C(=O)Nc2ccc(/C=C/c3ccc(NC(=O)c4ccc(OC)c(S(=O)(=O)N5CCCCCC5)c4)cc3S(=O)(=O)O)c(S(=O)(=O)O)c2)cc1S(=O)(=O)N1CCCCCC1 [Example 33f] | 16
2 | COc1ccc(C(=O)Nc2ccc(CCc3ccc(NC(=O)c4ccc(OC)c(S(=O)(=O)N5CCS(=O)(=O)CC5)c4)cc3S(=O)(=O)O)c(S(=O)(=O)O)c2)cc1S(=O)(=O)N1CCS(=O)(=O)CC1 [Example 43c, 2,2′-(1,2-Ethanediyl)bis[5-[[3-[(1,1-dioxido-4-thiomorpholinyl)sulfonyl]-4-methoxybenzoyl]amino]benzenesulfonic Acid]] | 4.5
3 | COCCOc1ccc(C(=O)Nc2ccc(/C=C/c3ccc(NC(=O)c4ccc(S(C)(=O)=O)cc4)cc3S(=O)(=O)O)c(S(=O)(=O)O)c2)cc1 [Example 40a, 5-[[4-(2-Methoxyethoxy)benzoyl]amino]-2-[(E)-2-[4-[[4-(methanesulfonyl)benzoyl]amino]-2-sulfophenyl]ethenyl]benzenesulfonic Acid] | 6.2
4 | O=C(O)CS(=O)(=O)c1cccc(C(=O)Nc2ccc(C=Cc3ccc(NC(=O)c4cccc(S(=O)(=O)CC(=O)O)c4)cc3S(=O)(=O)O)c(S(=O)(=O)O)c2)c1 [Example 36b, [3-(4-{2-[4-(3-Carboxymethanesulfonyl-benzoylamino)-2-sulfo-phenyl]-vinyl}-3-sulfo-phenylcarbamoyl)-benzenesulfonyl]-acetic Acid] | 21
5 | O=C(Nc1ccc(/C=C/c2ccc(NC(=O)c3cccc(CN4CCOCC4)c3)cc2S(=O)(=O)O)c(S(=O)(=O)O)c1)c1cccc(CN2CCOCC2)c1 [Example 33b, 2,2′-[(E)-1,2-Ethenediyl]bis[5-[[3-(4-morpholinylmethyl)benzoyl]amino]benzenesulfonic Acid]] | 4.5
6 | CS(=O)(=O)c1ccc(C(=O)Nc2ccc(/C=C/c3ccc(NC(=O)c4ccc(S(C)(=O)=O)c(N)c4)cc3S(=O)(=O)O)c(S(=O)(=O)O)c2)cc1N [Example 35, 2,2′-[(E)-1,2-Ethenediyl]bis[5-[[3-amino-4-(methylsulfonyl)benzoyl]amino]benzenesulfonic Acid]] | 4.1
7 | COc1ccc(C(=O)Nc2ccc(CS(=O)(=O)Cc3ccc(NC(=O)c4ccc(OC)c(S(=O)(=O)N5CCOCC5)c4)cc3S(=O)(=O)O)c(S(=O)(=O)O)c2)cc1S(=O)(=O)N1CCOCC1 [Example 50b, 2,2′-[Sulfonylbis(methylene)]bis[5-[[4-methoxy-3-(4-morpholinylsulfonyl)benzoyl]amino]benzenesulfonic acid]] | 41

Next, values leading:

Row | IC50 [µM] | Compound
8 | 3.7 | CCSc1ccc(C(=O)Nc2ccc(/C=C/c3ccc(NC(=O)c4ccc(SCC)c(S(=O)(=O)N5CCOCC5)c4)cc3S(=O)(=O)O)c(S(=O)(=O)O)c2)cc1S(=O)(=O)N1CCOCC1 [Example 32i, 2,2′-[(E)-1,2-Ethenediyl]bis[5-[[4-(ethylthio)-3-(4-morpholinylsulfonyl)benzoyl]amino]benzenesulfonic Acid]]
9 | 6.9 | O=C(Nc1ccc(/C=C/c2ccc(NC(=O)c3cccc(S(=O)(=O)N4CCOCC4)c3)cc2S(=O)(=O)O)c(S(=O)(=O)O)c1)c1cccc(S(=O)(=O)N2CCOCC2)c1 [Example 33a, 2,2′-[(E)-1,2-Ethenediyl]bis[5-[[3-(4-morpholinylsulfonyl)benzoyl]amino]benzenesulfonic Acid]]
10 | 3.9 | COCCNc1ccc(C(=O)Nc2ccc(/C=C/c3ccc(NC(=O)c4ccc(NCCOC)c(S(=O)(=O)N5CCOCC5)c4)cc3S(=O)(=O)O)c(S(=O)(=O)O)c2)cc1S(=O)(=O)N1CCOCC1 [Example 30l, 2,2′-[(E)-1,2-Ethenediyl]bis[5-[[4-[(2-methoxyethyl)amino]-3-(4-morpholinylsulfonyl)benzoyl]amino]benzenesulfonic Acid]]
11 | 4.8 | CN(C)c1ccc(C(=O)Nc2ccc(/C=C/c3ccc(NC(=O)c4ccc(N(C)C)c(S(=O)(=O)N5CCOCC5)c4)cc3S(=O)(=O)O)c(S(=O)(=O)O)c2)cc1S(=O)(=O)N1CCOCC1 [Example 32n, 2,2′-[(E)-1,2-Ethenediyl]bis[5-[[4-(dimethylamino)-3-(4-morpholinylsulfonyl)benzoyl]amino]benzenesulfonic Acid]]
12 | 16 | CSc1ccc(C(=O)Nc2ccc(C=Cc3ccc(NC(=O)c4ccc(SC)c(S(=O)(=O)N5CCOCC5)c4)cc3S(=O)(=O)O)cc2)cc1S(=O)(=O)N1CCOCC1 [Example 59, 5-[4-Methylsulfanyl-3-(morpholine-4-sulfonyl)-benzoylamino]-2-(2-{[4-methylsulfanyl-3-(morpholine-4-sulfonyl)-benzoylamino]-phenyl}-vinyl)-benzenesulfonic Acid]

target: T1, FSH receptor; assay: In Vitro Bio-test Procedure of Agonists and Antagonists to the FSH Receptor (cAMP accumulation in CHO-3D2 cells); type: cell-based; parameters: expressed in transfected cells; host or cells: CHO-3D2 cells; settings: not given
Procedure: In Vitro Bio-test Procedure of Agonists and Antagonists to the FSH Receptor
The compounds were subsequently diluted in sterile procedure medium (Optimem (Gibco/BRL, Grand Island, N.Y.)/0.1% BSA) prior to use in the bio-procedure.
Preparation of CHO-3D2 Cells; CHO-3D2 cells were plated into 96-well Nunc tissue culture plates at a density of 30,000 cells/well in DMEM/F12 medium (Gibco/BRL, Grand Island, N.Y.) supplemented with 5% Fetal Bovine Serum (Hyclone, Fetal Clone II), 2 mM L-glutamine and penicillin/streptomycin (100 U/mL). Cells were plated one day prior to performing the bio-procedure.
Procedure: On the day of procedure, the wells were washed two times with 100 ul/well of pre-warmed (37 deg C.) procedure medium. After aspirating the second wash, an additional 100 ul of procedure medium was added to each well and the cells pre-incubated for 30-45 minutes at 37 deg C. In a humidified incubator with 5%CO2/95% air. The cells were then challenged with varying dilutions of the test substance(s) in a 50 ul total incubation volume in procedure medium for 30 minutes at 37 deg C. in the humidified incubator. The challenge was terminated by the addition of 50 ul of 0.2 N HCl to each well. CAMP accumulation in the medium was measured by radioimmunoassay.
Test Groups: In the 96-well format, the plate is organized into 12 columns each containing 8 rows of wells. The plate was split in half to test a single compound in both agonist and antagonist mode on the same plate.
For agonist mode, compounds were tested using 5 different concentrations in a dose-response paradigm using one column as a control (challenge medium alone) in agonist mode.
The 96-well format allowed for the capability to test 4 columns of compound, using one of the remaining columns for negative control (challenge medium alone) and the other remaining column for ampositive control (ED20 of FSH alone).
The doses chosen to test each compound were extrapolated from the initial screening process (receptor binding data). Along with the test compounds, FSH was run in agonist mode using doses ranging from 0.1 ng/mL-1000 ng/mL as a postive control. Cytotoxicity of the compounds were screened by treating cells with the highest concentration of each compound used in the cAMP procedure for 30 minutes followed by washing of the cells 2 times with 100 ul PBS. The cells were then incubated for 5 min at 37 deg C. in the presence of 50 ug/mL Fluorescein diacetate and 20 ug/mL Propidium iodide in 100 ul PBS. The cells were washed two times with 100 ul PBS followed by examination of the cells under a fluorescence microscope using a 490 nm filter. Viable cells stained green throughout, while dead cells had red fluorescent nuclei.
Analysis of Results: cAMP accumulation was expressed as fmol/mL. […] Data were analyzed statistically by analysis of variance and significant differences between treatments and control determined by Dunnett's test. In antagonist mode, a Duncan's test was used.
Reference Compounds: Test compounds were compared to the effect of purified or recombinant human FSH.

Row | IC50 [µM] | Compound
13 | 11 | COc1ccc(C(=O)Nc2ccc(/C=C/c3ccc(NC(=O)c4ccc(OC)c(S(=O)(=O)N5CCCCCC5)c4)cc3S(=O)(=O)O)c(S(=O)(=O)O)c2)cc1S(=O)(=O)N1CCCCCC1 [Example 33f]
14 | 4.9 | CCSc1ccc(C(=O)Nc2ccc(/C=C/c3ccc(NC(=O)c4ccc(SCC)c(S(=O)(=O)N5CCOCC5)c4)cc3S(=O)(=O)O)c(S(=O)(=O)O)c2)cc1S(=O)(=O)N1CCOCC1 [Example 32i, 2,2′-[(E)-1,2-Ethenediyl]bis[5-[[4-(ethylthio)-3-(4-morpholinylsulfonyl)benzoyl]amino]benzenesulfonic Acid]]
